From article PMC8234462, “Novel Cyclophilin Inhibitor Decreases Cell Proliferation and Tumor Growth in Models of Hepatocellular Carcinoma” (Cancers, 2021)
Entries after “also recorded” stand apart in the source; their conditions may differ.

What was measured:
Dendritic cells = test: Cytotoxicity, CellTiter Glo; format: cell-based; conditions: Homo sapiens, Dendritic cell, 168 h, 7 days of treatment, read-out: IC50 (50% reduction in cell viability)
Procedure: The evaluation of the off-target effects of NV651 was performed by ImQuest BioSciences Inc. (Frederick, MD, USA) by analyzing the cytotoxicity in a panel of primary cells. NV651 was evaluated at a concentration of 30 µM and five serial half-logarithmic dilutions in triplicate. The positive control compounds for each cell type were purchased from Sigma-Aldrich (St. Louis, MO, USA) and were as follows: Unstimulated human peripheral blood mononuclear cells (PBMCs), phytohemagglutinin (PHA)-stimulated PBMCs, monocytes/macrophages, dendritic cells, hepatocytes, induced pluripotent stem cell (iPS) neurons: […] AZT, kidney cells (RPTEC): cisplatin and iPS cardiomyocytes: Doxazosin. The isolation was based on Nair, Archer. Briefly, freshly separated PBMCs from one donor were suspended in DPBS at 4 × 10^6 cells per mL and cultured in a T-75 flask. Cells were incubated for 30 min and then washed 5–7 times with DPBS to remove nonadherent cells. Cells were cultured in RPMI 1640 supplemented with 10% FBS, 2-mM L-glutamine, 25-mM HEPES, […], 100-µg/mL streptomycin, 50-ng/mL rhGM-CSF and 50-ng/mL rhIL-4 and incubated for 7 days. After the incubation period, cells were cultured in the same media with the addition of LPS (10 ng/mL) for two days. […]

[1] = In vivo toxicity, body weight; conditions: BALB/c nude mice; 25, 50 or 200 mg/kg daily IP for 5 days
Procedure: All the procedures related to animal handling, care and the treatment in this study were performed according to the guidelines approved by the Institutional Animal Care and Use Committee (IACUC) of Shanghai ChemPartner Ltd. (Shanghai, China) following the guidance of the Association for Assessment and Accreditation of Laboratory Animal Care (AAALAC). BALB/c nude mice were kept in individual ventilation cages at a constant temperature and humidity, with 5 animals in each cage. Animals had free access to irradiation-sterilized dry granule food during the entire study period and water. BALB/c nude mice between 6–8 weeks were treated with either 25, 50 or 200 mg/kg dissolved in 25% buffered beta OH cyclodextrin (n = 5 mice per treatment). Daily doses were given intraperitoneally (IP) for 5 days. Mice were weighted daily until the 6th day.

LIXC-086 = test: Cell proliferation assay: Acumen; format: cell-based; conditions: Homo sapiens, 168 h, 7 days, read-out: Abs IC50 growth inhibition
Procedure: (§1) Compound screening and comparison of the antiproliferative effect of NV651 and sorafenib were performed by Shanghai ChemPartner Co., Ltd. (Shanghai, China). Cells were seeded in a 96-well plate at the following concentrations: LIXC-003 400 cells/well, LIXC-004 1000 cells/well, LIXC-086 5000 cells/well, LIXC-066 1250 cells/well, LIXC-012 2000 cells/well, LIXC-006 1250 cells/well, HEPG2 1000 cells/well, HUH7 2000 cells/well and Hep3B2.1-7-Luc 1000 cells/well. Cells were treated with either sorafenib or NV651 at 0.004, 0.011, 0.034, 0.103, 0.309, 0.926, 2.778, 8.333, 25 µM or an equivalent volume with DMSO.
(§2) After 7 days, cells were trypsinized and collected. Fifty microliters of cell suspension were added to 50 µL of 2-µM Calcein AM (Invitrogen, Cat# C3099, Waltham, MA, USA) diluted in HBSS and placed in a black-walled 96-well plate. The plate was left for 30 min at room temperature, followed by a scan with Acumen eX3.
(§3) Growth inhibition for direct cell counting (%) by Acumen was calculated as:(1) 100−100∗Experimental count−Blank/DMSO count −Blank

HEP3B2.1-7-Luc = test: Cell proliferation assay: Acumen; format: cell-based; conditions: Homo sapiens, 168 h, 7 days, read-out: Abs IC50 growth inhibition
Procedure: as §1, §2, §3

LIXC-006 = test: Cell proliferation assay: Acumen; format: cell-based; conditions: Homo sapiens, 168 h, 7 days, read-out: Abs IC50 growth inhibition
Procedure: as §1, §2, §3

LIXC-012 = test: Cell proliferation assay: Acumen; format: cell-based; conditions: Homo sapiens, 168 h, 7 days, read-out: Abs IC50 growth inhibition
Procedure: as §1, §2, §3

HEPG2 = test: Cell proliferation assay: Acumen; format: cell-based; conditions: Homo sapiens, 168 h, 7 days, read-out: Abs IC50 growth inhibition
Procedure: as §1, §2, §3

LIXC-004 = test: Cell proliferation assay: Acumen; format: cell-based; conditions: Homo sapiens, 168 h, 7 days, read-out: Abs IC50 growth inhibition
Procedure: as §1, §2, §3

Unstimulated PBMCs = test: Cytotoxicity, CellTiter Glo; format: cell-based; conditions: Homo sapiens, PBMC, 72 h, 3 days of treatment, read-out: IC50 (50% reduction in cell viability)
Procedure: (§4) The evaluation of the off-target effects of NV651 was performed by ImQuest BioSciences Inc. (Frederick, MD, USA) by analyzing the cytotoxicity in a panel of primary cells. NV651 was evaluated at a concentration of 30 µM and five serial half-logarithmic dilutions in triplicate. The positive control compounds for each cell type were purchased from Sigma-Aldrich (St. Louis, MO, USA) and were as follows:
(§5) Human unstimulated or PHA-P-stimulated PBMCs were isolated by Ficoll hypaque centrifugation from whole blood and resuspended in a fresh tissue culture medium containing IL-2. Cells were seeded at a concentration of 5 × 10^5 /mL in a 96-well plate followed by NV651 treatment in triplicate for 3 days. Cell viability was measured with CellTiter Glo (Promega, Madison, WI, USA).
(§6) CellTiter Glo was performed to evaluate cell viability. CellTiter Glo Luminescent Cell Viability Assay (Promega, Madison, WI, USA) was performed according to the manufacturer’s instructions.

PHA-stimulated PBMCs = test: Cytotoxicity, CellTiter Glo; format: cell-based; conditions: Homo sapiens, PBMC, 72 h, 3 days of treatment, read-out: IC50 (50% reduction in cell viability)
Procedure: as §4, §5, §6

## CC(=O)CCC1C(=O)NC(C(C)C)C(=O)NC(Cc2cc(O)cc(F)c2)C(=O)N2CCCC(N2)C(=O)OC(C(C)=CC=CC(=O)OC(C)(C)C)CC=CC=CC(O)C(C)C1O (stereo not shown) [NV651]
Dendritic cells
  IC50: 24200 nM
[1]
  body weight change: no significant weight loss or other clinical signs; also recorded: no body weight losses
LIXC-086
  IC50: 656 nM
HEP3B2.1-7-Luc
  IC50: 9 nM
LIXC-006
  IC50: 8 nM
LIXC-012
  IC50: 94 nM
HEPG2
  IC50: 6.3 nM
LIXC-004
  IC50: 4 nM
Unstimulated PBMCs
  IC50: > 30000 nM
PHA-stimulated PBMCs
  IC50: > 30000 nM
